Columns and labels:
[1] = system: ICR mouse; experiment: Passive cutaneous anaphylaxis test (Evans blue leakage); assay type: in vivo; conditions: for anti-allergic effect in words, passive cutaneous anaphylaxis: Tables 5 and 6
Protocol: 50 μl of diluted solution with physiological saline containing 10 μg of mouse IgE serum against dinitrophenol-human serum album (DNP-HSA, Sigma, USA), was injected to the back of ICR mouse (Dae Han Co., Ltd) anesthetized with ether to be passive sensitization. After 48 hours, 0.2 ml of physiological saline solution containing 0.2 mg of DNP-HSA and 1.6 mg of Evans blue was injected to the mouse's tail vein and the mouse was sacrificed by cervical dislocation to death and then the amount of Evans blue dye leaked to mouse's back was measured as follows. Certain circular area of mouse's back distant from the area where IGE injected about 1 cm^2 far, was cut and put into a test tube. 4 ml of mixture solution of 0.6M phosphoric acid and acetone with a ratio of 5:13 was added to the tube, stirred and filtered. The amount of dye was measured by colorimetric analysis at 620 nm.

[2] = system: RBL-2H3 cell line; experiment: Anti-allergic effect using IgE-sensitized, DNP-BSA-activated RBL-2H3 cell line (p-NAG substrate readout); assay type: cell-based, rat; conditions: for Anti-allergic effect in RBL cell IC50 / IC50: Table 4, saponin fractions and isolated saponins; for anti-allergic effect in words, allergy inhibition test using RBL-2H3 cell line: Tables 3 and 4; for IC50: Rattus norvegicus
Protocol: In order to confirm the anti-allergic effect of the extracts in the present invention, the experiment was performed by the procedure described in the literature (Inagaki. et al., Int, Arch. Allergy Appl. Immunol., 87, pp254-259, 1988).
RBL-2H3 cell line (rat basophil cell line, Korean Cell Line Bank, Cat. No.22256) were incubated with DMEM (Dulbecco's modified Eagle's) medium (Sigma No. D-5648, USA) containing 10% FBS (Fetal Bovine Serum), L-glutamine for 2 hours at 37° C. by using humidified 5% CO2 incubator and attached cells were floated by trypsin-EDTA solution, separated and recovered to use in further experiment. Each RBL-2H3 cells were transferred to 24 well plate to be adjusted to 5×10^5 cells/well, treated with 0.5 μg of mouse monoclonal IgE and incubated for 12 hours to be sensitization. The cell was washed with 0.5 ml of siraganian buffer solution (pH 7.2) composed of 119 mM NaCl, 5 mM KCl, 0.4 mM MgCl2, 25 mM PIPES and 40 mM NaOH. 0.16 ml of siraganian buffer solution containing 5.5 mM glucose, 1 mM CaCl2 and 0.1% BSA, was added thereto again and incubated for 10 minutes at 37° C. Thereafter, 40 μl of test sample solution containing the extract in the Comparative Example 1, 2, 3 and Example 1, 2, 3 were added thereto. After 20 minutes, the cells were activated by adding 0.02 ml of antigen, 1 μg/ml of DNP-BSA, for 10 minutes at 37° C., centrifuged at the speed of 2000 rpm for 10 minutes and 0.025 ml of the supernatant was transferred to 96 well plate. 0.025 ml of 1 mM p-NAG substrate solution prepared by dissolving p-nitrophenyl-N-acetyl-β-D-glucosaminide with 0.1M citrate buffer solution adjusted to pH 4.5, was added thereto, incubated for 60 minutes at 37° C. and 0.2 ml of 0.1M Na2CO3/NaHCO3 was added thereto to quench the reaction to measure their optical density at 405 nm by ELISA analyzer.

Molecule: CC(C)=CCC=C(C)[C@H]1CC[C@]2(C)[C@@H]1[C@H](O)C[C@@H]1[C@@]3(C)CC[C@H](O)C(C)(C)[C@@H]3[C@@H](O[C@@H]3O[C@H](CO)[C@@H](O)[C@H](O)[C@H]3O[C@@H]3O[C@@H](C)[C@H](O)[C@@H](O)[C@H]3O)C[C@]12C (stereo in doubt) [Ginsenoside F4]
- Passive cutaneous anaphylaxis Inhibitory rate (%) Abdominal administration ([1]; Table 6, 25 mg/kg abdominal): 63%

Molecule: CC(C)=CCC[C@@](C)(O)[C@H]1CC[C@]2(C)[C@@H]1[C@H](O)C[C@@H]1[C@@]3(C)CC[C@H](O[C@@H]4O[C@H](CO)[C@@H](O)[C@H](O)[C@H]4O)C(C)(C)[C@@H]3CC[C@]12C [20(R)-ginsenoside Rh2]
- Anti-allergic effect in RBL cell IC50 [2]: >0.2 µg/mL

Molecule: CC(C)=CCC[C@@](C)(O)[C@H]1CC[C@]2(C)[C@@H]1[C@H](O)C[C@@H]1[C@@]3(C)CC[C@H](O)C(C)(C)[C@@H]3CC[C@]12C [20(R)-protopanaxadiol]
- Anti-allergic effect in RBL cell IC50 [2]: >0.2 µg/mL

Molecule: CC(C)=CCC[C@](C)(O)[C@H]1CC[C@]2(C)[C@@H]1[C@H](O)C[C@@H]1[C@@]3(C)CC[C@H](O[C@@H]4O[C@H](CO)[C@@H](O)[C@H](O)[C@H]4O[C@@H]4O[C@H](CO)[C@@H](O)[C@H](O)[C@H]4O)C(C)(C)[C@@H]3CC[C@]12C [20(S)-ginsenoside Rg3]
- Anti-allergic effect in RBL cell IC50 [2]: >0.2 µg/mL

Molecule: CC(C)=CCC[C@](C)(O)[C@H]1CC[C@]2(C)[C@@H]1[C@H](O)C[C@@H]1[C@@]3(C)CC[C@H](O[C@@H]4O[C@H](CO)[C@@H](O)[C@H](O)[C@H]4O)C(C)(C)[C@@H]3CC[C@]12C [20(S)-ginsenoside Rh2]
- Anti-allergic effect in RBL cell IC50 [2]: 0.03 µg/mL

Molecule: CC(C)=CCC[C@](C)(O)[C@H]1CC[C@]2(C)[C@@H]1[C@H](O)C[C@@H]1[C@@]3(C)CC[C@H](O)C(C)(C)[C@@H]3CC[C@]12C [20(S)-protopanaxadiol]
- Anti-allergic effect in RBL cell IC50 [2]: >0.2 µg/mL

Molecule: O=C([O-])c1cc(=O)c2c(OCC(O)COc3cccc4oc(C(=O)[O-])cc(=O)c34)cccc2o1.[Na+].[Na+] [DSCG, Disodium Cromoglycate, reference compound]
- Anti-allergic effect in RBL cell IC50 [2]: 0.498 µg/mL
- Passive cutaneous anaphylaxis Inhibitory rate (%) ([1]; Table 5, 100 mg/kg): 37%
- Passive cutaneous anaphylaxis Inhibitory rate (%) Oral administration ([1]; Table 6, 100 mg/kg oral): 37%

Molecule: CC(C)=CC/C=C(\C)[C@H]1CC[C@]2(C)[C@@H]1[C@H](O)C[C@@H]1[C@@]3(C)CC[C@H](O[C@@H]4O[C@H](CO)[C@@H](O)[C@H](O)[C@H]4O[C@@H]4O[C@H](CO)[C@@H](O)[C@H](O)[C@H]4O)C(C)(C)[C@@H]3CC[C@]12C [Gginsenoside Rg5, ginsenoside Rg5]
- Passive cutaneous anaphylaxis Inhibitory rate (%) Abdominal administration ([1]; Table 6, 25 mg/kg abdominal): 45%

Molecule: CC(C)=CCC[C@](C)(O[C@@H]1O[C@H](CO)[C@@H](O)[C@H](O)[C@H]1O)[C@H]1CC[C@]2(C)[C@@H]1[C@H](O)C[C@@H]1[C@@]3(C)CC[C@H](O)C(C)(C)[C@@H]3[C@@H](O)C[C@]12C [Ginsenoside F1]
- Anti-allergic effect in RBL cell IC50 [2]: 0.13 µg/mL
- anti-allergic effect in words, allergy inhibition test using RBL-2H3 cell line [2]: more potent inhibition effect than that of DSCG
- Passive cutaneous anaphylaxis Inhibitory rate (%) Abdominal administration ([1]; Table 6, 25 mg/kg abdominal): 69%
- anti-allergic effect in words, passive cutaneous anaphylaxis [1]: more potent inhibitory effects than that of DSCG

Molecule: CC(C)=CCC[C@](C)(O[C@@H]1O[C@H](CO[C@@H]2O[C@H](CO)[C@@H](O)[C@H](O)[C@H]2O)[C@@H](O)[C@H](O)[C@H]1O)[C@H]1CC[C@]2(C)[C@@H]1[C@H](O)C[C@@H]1[C@@]3(C)CC[C@H](O[C@@H]4O[C@H](CO)[C@@H](O)[C@H](O)[C@H]4O[C@@H]4O[C@H](CO)[C@@H](O)[C@H](O)[C@H]4O)C(C)(C)[C@@H]3CC[C@]12C [Ginsenoside Rb1]
- Anti-allergic effect in RBL cell IC50 [2]: >0.2 µg/mL
- Passive cutaneous anaphylaxis Inhibitory rate (%) Abdominal administration ([1]; Table 6, 50 mg/kg abdominal): 17%

Molecule: CC(C)=CCC[C@](C)(O[C@@H]1O[C@H](CO[C@@H]2OC[C@H](O)[C@H](O)[C@H]2O)[C@@H](O)[C@H](O)[C@H]1O)[C@H]1CC[C@]2(C)[C@@H]1[C@H](O)C[C@@H]1[C@@]3(C)CC[C@H](O[C@@H]4O[C@H](CO)[C@@H](O)[C@H](O)[C@H]4O[C@@H]4O[C@H](CO)[C@@H](O)[C@H](O)[C@H]4O)C(C)(C)[C@@H]3CC[C@]12C [Ginsenoside Rb2]
- Anti-allergic effect in RBL cell IC50 [2]: >0.2 µg/mL
- Passive cutaneous anaphylaxis Inhibitory rate (%) Abdominal administration ([1]; Table 6, 25 mg/kg abdominal): 12%

Molecule: CC(C)=CCC[C@](C)(O[C@@H]1O[C@H](CO)[C@@H](O)[C@H](O)[C@H]1O)[C@H]1CC[C@]2(C)[C@@H]1[C@H](O)C[C@@H]1[C@@]3(C)CC[C@H](O)C(C)(C)[C@@H]3[C@@H](O[C@@H]3O[C@H](CO)[C@@H](O)[C@H](O)[C@H]3O[C@@H]3O[C@@H](C)[C@H](O)[C@@H](O)[C@H]3O)C[C@]12C [Ginsenoside Re]
- IC50 [2]: 0.06 µg/mL
- Passive cutaneous anaphylaxis Inhibitory rate (%) Abdominal administration ([1]; Table 6, 25 mg/kg abdominal): 15%

Molecule: CC(C)=CCC[C@](C)(O)[C@H]1CC[C@]2(C)[C@@H]1[C@H](O)C[C@@H]1[C@@]3(C)CC[C@H](O)C(C)(C)[C@@H]3[C@@H](O[C@@H]3O[C@H](CO)[C@@H](O)[C@H](O)[C@H]3O[C@@H]3O[C@H](CO)[C@@H](O)[C@H](O)[C@H]3O)C[C@]12C [Ginsenoside Rf]
- IC50 [2]: 0.11 µg/mL
- Passive cutaneous anaphylaxis Inhibitory rate (%) Abdominal administration ([1]; Table 6, 25 mg/kg abdominal): 40%

Molecule: CC(C)=CCC[C@](C)(O[C@@H]1O[C@H](CO)[C@@H](O)[C@H](O)[C@H]1O)[C@H]1CC[C@]2(C)[C@@H]1[C@H](O)C[C@@H]1[C@@]3(C)CC[C@H](O)C(C)(C)[C@@H]3[C@@H](O[C@@H]3O[C@H](CO)[C@@H](O)[C@H](O)[C@H]3O)C[C@]12C [Ginsenoside Rg1]
- Anti-allergic effect in RBL cell IC50 [2]: 0.08 µg/mL
- Passive cutaneous anaphylaxis Inhibitory rate (%) Abdominal administration ([1]; Table 6, 25 mg/kg abdominal): 37%

Molecule: CC(C)=CCC[C@](C)(O)[C@H]1CC[C@]2(C)[C@@H]1[C@H](O)C[C@@H]1[C@@]3(C)CC[C@H](O[C@@H]4O[C@H](CO)[C@@H](O)[C@H](O)[C@H]4O[C@@H]4O[C@H](CO)[C@@H](O)[C@H](O)[C@H]4O)C(C)(C)[C@@H]3CC[C@]12C [Ginsenoside Rg3]
- Passive cutaneous anaphylaxis Inhibitory rate (%) Abdominal administration ([1]; Table 6, abdominal, dosage cell empty): 47%
- Passive cutaneous anaphylaxis Inhibitory rate (%) Oral administration ([1]; Table 6, oral, dosage cell empty): 38%

Molecule: CC(C)=CCC[C@](C)(O)[C@H]1CC[C@]2(C)[C@@H]1[C@H](O)C[C@@H]1[C@@]3(C)CC[C@H](O)C(C)(C)[C@@H]3[C@@H](O[C@@H]3O[C@H](CO)[C@@H](O)[C@H](O)[C@H]3O)C[C@]12C [Ginsenoside Rh1]
- Anti-allergic effect in RBL cell IC50 [2]: 0.02 µg/mL
- anti-allergic effect in words, allergy inhibition test using RBL-2H3 cell line [2]: more potent inhibition effect than that of DSCG
- Passive cutaneous anaphylaxis Inhibitory rate (%) Abdominal administration ([1]; Table 6, 25 mg/kg abdominal): 87%
- Passive cutaneous anaphylaxis Inhibitory rate (%) Oral administration ([1]; Table 6, 25 mg/kg oral): 79%
- anti-allergic effect in words, passive cutaneous anaphylaxis [1]: more potent inhibitory effects than that of DSCG

Molecule: CC(C)=CCC[C@](C)(O)[C@H]1CC[C@]2(C)[C@@H]1[C@H](O)C[C@@H]1[C@@]3(C)CC[C@H](O[C@@H]4O[C@H](CO)[C@@H](O)[C@H](O)[C@H]4O)C(C)(C)[C@@H]3CC[C@]12C [Ginsenoside Rh2]
- anti-allergic effect in words, allergy inhibition test using RBL-2H3 cell line [2]: more potent inhibition effect than that of DSCG
- Passive cutaneous anaphylaxis Inhibitory rate (%) Abdominal administration ([1]; Table 6, 25 mg/kg abdominal): 88%
- Passive cutaneous anaphylaxis Inhibitory rate (%) Oral administration ([1]; Table 6, 25 mg/kg oral): 36%
- anti-allergic effect in words, passive cutaneous anaphylaxis [1]: more potent inhibitory effects than that of DSCG

Molecule: CC(C)=CCC[C@@](C)(O)[C@H]1CC[C@]2(C)[C@@H]1[C@H](O)C[C@@H]1[C@@]3(C)CC[C@H](O)C(C)(C)[C@@H]3CC[C@]12C [protopanaxadiol]
- Passive cutaneous anaphylaxis Inhibitory rate (%) Abdominal administration ([1]; Table 6, 25 mg/kg abdominal): 25%

Molecule: Δ^20-ginsenoside Rg3
- Anti-allergic effect in RBL cell IC50 [2]: 0.09 µg/mL

Reference: patent publication US20030190378A1, “Extract of processed Panax genus plant, the preparation method thereof, and compositions containing the same” (priority 2002, published 2003)
